# Earlier results in US9267111B2, “Methods of treating female subjects in need of in vitro fertilization” (The General Hospital Corporation, priority 2004, dated 2016).
# Tested on: germ line stem cells and spermatogonia in irradiated testicular tissue
# Details: versus untreated tissues
smiles,measurement,value
"CCCCCCCCCCCCC/C=C/[C@@H](O)[C@@H](N)COP(=O)(O)O [S1P, Sphingosine-1-phosphate]",numbers of primary spermatocytes and spermatogonia,higher than untreated tissues
